Measurements: patent US6913878B2, “Method of detecting DNA single strand breaks” (The University of North Carolina at Chapel Hill, priority 2003, dated 2005)

Legend:
[1] = test system: EM9-V cells (XRCC1-deficient CHO EM9 cells expressing empty vector); assay: Intracellular NAD(P)H assay with water-soluble tetrazolium salt WST-8 (CCK-8); assay type: cell-based, Chinese hamster
Procedure: (§1) XRCC1-proficient and -deficient CHO cells (Taylor, et al. (2002) Mol. Cell. Biol. 22:2556-2563) were cultured as monolayers in alpha-minimal essential medium (INVITROGEN™, Carlsbad, Calif.) supplemented with 10% fetal bovine serum (Sigma-Aldrich, St. Louis, Mo.), 100 μg/mL penicillin, and 100 μg/mL streptomycin. Immortalized mouse embryonic fibroblasts derived from PART-1^+/+ and PARP-1^−/− were maintained in Dulbecco's modified Eagle's medium, 4.5 g/Liter glucose medium (INVITROGEN™, Carlsbad, Calif.) supplemented with 10% fetal bovine serum and 0.5% gentamicin (Schreiber, et al. (2002) J. Biol. Chem. 277:23028-23036). Human lymphoblastoid cells (GM15030, GM15061, GM15237, GM15268, GM15339, GM15349, GM15365, and GM15380; Coriell Cell Repositories, Camden, N.J.) were grown in RPMI 1640 medium (INVITROGEN™, Carlsbad, Calif.) supplemented with 15% fetal bovine serum (Sigma-Aldrich, St. Louis, Mo.), 100 μg/mL penicillin, and 100 μg/mL streptomycin. The cells were maintained in a humidified atmosphere of 5% CO2 and 95% air at 37° C.
(§2) A water-soluble tetrazolium salt was used to measure the amount of intracellular NAD(P)H through the reduction to a formazan dye. The total amount of NAD(P)H within viable cells in the medium was determined periodically by a spectrophotometer. Cells were seeded into 96-well plates (CHO cells and mouse fibroblasts: 5×10^3 cells/well; lymphoblastoid cells: 15×10^3 cells/well) and were cultured in 100 μL of medium with fetal bovine serum and antibiotics as described. After a 30-minute incubation, cells were treated with MMS at indicated concentrations and 1/10 volume of CCK-8 solution (Dojindo Molecular Technology, Gaithersburg, Md.) which consisted of a water-soluble 2-(2-methoxy-4-nitrophenyl)-3-(4-nitrophenyl)-5-(2,4-disulfophenyl)-2H-tetrazolium monosodium salt (WST-8; 5 mM) and 1-Methoxy-5-methylphenazinium methylsulfate (1-Methoyx PMS; 0.2 mM) as an electron mediator. Cells in each well were further cultured for up to 4 hours. WST-8 produced a water-soluble yellow-colored formazan dye through its bioreduction either in the presence of an electron carrier, such as 1-Methoxy PMS, Diaphorase, a flavoenzyme, or directly by NAD(P)H. Therefore, the reduction of tetrazolium salts predominantly depends on the amount of intracellular NAD(P)H. The amount of formazan dye produced by the living cells in the medium was determined approximately every 30 minutes by a spectrophotometer and compared to the values of the control. Absorbance was recorded in a 96-well plate reader at 450 nm with a 650 nm reference filter. A medium blank was prepared with only medium and CCK-8 reaction solution. Decreases in the intracellular NAD(P)H were assessed by comparing the absorbance of a well containing cells treated with MMS against that of a well with cells treated with phosphate-buffered saline (PBS) only.
(§3) XRCC1 functions as a scaffold for interaction with other base excision repair-associated proteins including human AP endonuclease (APE1), DNA Pol-β, DNA Ligase III, Polynucleotide Kinase (PNK), and PARP-1 (Caldecott, et al. (1996) Nucl. Acids Res. 24:4387-4394; Whitehouse, et al. (2001) Cell 104:1-11; Kubota, et al. (1996) EMBO J. 15:6662-6670; Caldecott, et al. (1994) Mol. Cell. Biol. 14:68-76; Caldecott, et al. (1995) Nucl. Acids Res. 23:4836-4843) and is required for efficient single strand break repair and genetic stability in mammalian cells. Rodent cells lacking XRCC1 are hypersensitive to DNA damaging agents (Whitehouse, et al. (2001) Cell 104:1-11; Kubota, et al. (1996) EMBO J. 15:6662-6670; Caldecott, et al. (1994) Mol. Cell. Biol. 14:68-76). […]

[2] = test system: EM9-XH5 cells (CHO EM9 cells expressing wild-type human XRCC1); assay: as above; assay type: cell-based, Chinese hamster
Procedure: as §1, §2, §3

[3] = test system: PARP-1+/+ immortalized embryonic fibroblasts; assay: Intracellular NAD(P)H assay (WST-8) in PARP-1+/+ fibroblasts; assay type: cell-based, mouse; conditions: PARP-1+/+ cells, MMS 4 hours (FIG. 4A)
Procedure: (§4) XRCC1-proficient and -deficient CHO cells (Taylor, et al. (2002) Mol. Cell. Biol. 22:2556-2563) were cultured as monolayers in alpha-minimal essential medium (INVITROGEN™, Carlsbad, Calif.) supplemented with 10% fetal bovine serum (Sigma-Aldrich, St. Louis, Mo.), 100 μg/mL penicillin, and 100 μg/mL streptomycin. Immortalized mouse embryonic fibroblasts derived from PART-1^+/+ and PARP-1^−/− were maintained in Dulbecco's modified Eagle's medium, 4.5 g/Liter glucose medium (INVITROGEN™, Carlsbad, Calif.) supplemented with 10% fetal bovine serum and 0.5% gentamicin (Schreiber, et al. (2002) J. Biol. Chem. 277:23028-23036). […]
(§5) A water-soluble tetrazolium salt was used to measure the amount of intracellular NAD(P)H through the reduction to a formazan dye. The total amount of NAD(P)H within viable cells in the medium was determined periodically by a spectrophotometer. […] WST-8 produced a water-soluble yellow-colored formazan dye through its bioreduction either in the presence of an electron carrier, such as 1-Methoxy PMS, Diaphorase, a flavoenzyme, or directly by NAD(P)H. Therefore, the reduction of tetrazolium salts predominantly depends on the amount of intracellular NAD(P)H. The amount of formazan dye produced by the living cells in the medium was determined approximately every 30 minutes by a spectrophotometer and compared to the values of the control. […]

EM9-V cells [4] = assay: Intracellular NAD(P)H assay using XTT or MTS; assay type: cell-based, Chinese hamster
Procedure: (§6) XTT^1) (2,3-bis[2-Methoxy-4-nitro-5-sulfophenyl]-2H-tetrazolium-5-carboxy-anilide inner salt) and MTS^2) (3-(4,5-dimethylthiazol-2-yl)-5-(3-carboxynethoxyphenyl)-2-(4-sulfophenyl)-2H-tetrazolium, inner salt), water-soluble tetrazolium salts, were used to measure the amount of intracellular NAD(P)H through the reduction to a water-soluble formazan dye. EM9-V and XH5 cells were seeded into 96-well plates and were cultured in 100 μL of medium with fetal bovine serum and antibiotics as described (10,000 cells per well). After a 30-minute incubation, cells were treated with DMS (dimethylsulfate) at indicated concentrations and 1/10 volume of either XTT with an electron coupling agents such as phenazine methosulfate (Sigma) or MTS with phenazine methosulfate (Promega). Cells in each well were further cultured for up to 4 hours. Either XTT or MTS produced a water-soluble yellow-colored formazan dye and the absorbance was recorded in a 96-well plate reader at 450 nm with a 650 nm reference filter.
(§7) These cells were exposed to DMS at different concentrations for 2.5 or 4 hours. […] In addition, CHO cells were co-exposed to DMS and PARP inhibitor, 3-aminobenzamide (10 mM) and were applied 1 to 2 hours prior to the DMS treatment and kept in the medium during DMS exposure until the cells were analyzed.

EM9-XH5 cells = assay: Intracellular NAD(P)H assay using XTT or MTS; assay type: cell-based, Chinese hamster; conditions: DMS 4 hours (XTT) or 2.5 hours (MTS) (FIG. 7A, B)
Procedure: as §6, §7

[5] = test system: EM9-V and EM9-XH5 CHO cells; assay: Trypan blue dye-exclusion assay (cell death); assay type: cell-based, Chinese hamster; conditions: MMS 0, 0.75, 1.5 mM for 1 and 4 hours; any concentration
Procedure: Cell death was determined with trypan blue staining. Cells were treated with MMS at 0, 0.75, and 1.5 mM for 1 and 4 hours. After trypsinization, cells were stained using a standard trypan blue dye-exclusion assay.

[6] = test system: PARP-1-/- immortalized embryonic fibroblasts; assay: Intracellular NAD(P)H assay (WST-8) in PARP-1-/- fibroblasts; assay type: cell-based, mouse; conditions: PARP-1-/- cells, MMS 4 hours, compared with PARP-1+/+ cells (FIG. 4B)
Procedure: as §4, §5

EM9-V cells [7] = assay type: cell-based, Chinese hamster; conditions: immediately after 1 hour MMS treatment (FIG. 5D)
Procedure: A direct comparison was conducted between the method of the invention measuring NAD(P)H and the Comet assay for the detection of single strand breaks. Slides for the Comet assay were prepared using well-known methods (Tennant, et al. (2001) Mutat. Res. 493:1-10). Briefly, slides were dipped into agarose and dried at 60° C. Low melting point agarose (0.5%) was prepared and held at 42° C. Cell suspensions (1×10^4 cells/10 μL) were mixed with 190 μL low melting point agarose. Ninety μL of this suspension was pipetted onto each of two slides and covered with a coverglass. Each slides was placed on ice for 5 minutes, the coverglass was removed, 90 μL of low melting point agarose was pipetted onto each slide, a coverglass was reapplied, and slides were returned to the ice. After 5 minutes, the coverglass was removed and the slides were placed in lysis buffer (pH 11) containing 2.5 M NaCl, 100 mM EDTA-2Na, 10 mM Tris, 1% Na Sarcosinate, 1% TRITON® X-100 and 10% dimethylsulfoxide for 20 minutes. Following lysis, the slides were placed in denaturation buffer (i.e., electrophoresis buffer; 300 mM NaOH, 1 mM EDTA, pH 13). […]
Slides were stained using 35 μL of SYBR GREEN-1™ (MOLECULAR PROBES™, Eugene, Oreg.)(10× in Tris-EDTA buffer pH 8.0) and a coverglass was applied. […] Fifty cells from each of two slides were analyzed by a independent scorer who had no knowledge of the treatment. […]

[8] = test system: Human lymphoblastoid cells (GM15030, GM15061, GM15237, GM15268, GM15339, GM15349, GM15365, GM15380); assay: Intracellular NAD(P)H assay (WST-8) in lymphoblastoid cells; assay type: cell-based; conditions: eight healthy individuals, MMS 4 hours (FIG. 6A)
Procedure: as §4, §5

Q: Which results are given for `O=C1NCCc2c(OCCCCN3CCCCC3)cccc21` [DPQ, 3,4-dihydro-5-[4-(1-piperidinyl)butoxy]-1(2H)-isoquinolinone]?
A: block of MMS-induced decrease in intracellular NAD(P)H ([1]; EM9-V cells, DPQ 90 μM applied 1 to 2 hours before and during MMS, 4 hours (FIG. 3B)): almost completely blocked; block of MMS-induced decrease in intracellular NAD(P)H ([2]; DPQ 90 μM applied 1 to 2 hours before and during MMS, 4 hours (FIG. 3B)): almost completely blocked

Q: Which “block of MMS-induced decrease in intracellular NAD(P)H” value ([1]; EM9-V cells, 3-AB 10 mM applied 1 to 2 hours before and during MMS, 4 hours (FIG. 3A)) does the source give for `NC(=O)c1cccc(N)c1` [3-AB, 3-aminobenzamide] here?
A: almost completely blocked

Q: And the “block of MMS-induced decrease in intracellular NAD(P)H” value ([2]; 3-AB 10 mM applied 1 to 2 hours before and during MMS, 4 hours (FIG. 3A))?
A: almost completely blocked

Q: And the “protection from reduction in NAD(P)H upon exposure to MMS” value ([3]; 3-AB 10 mM)?
A: protected

Q: What about the “block of DMS-induced decrease in intracellular NAD(P)H” value (EM9-V cells [4]; 3-AB 10 mM applied 1 to 2 hours before and during DMS, XTT 4 hours or MTS 2.5 hours (FIG. 7A, B)) of the same molecule?
A: completely blocked

Q: Which results are given for `COS(=O)(=O)OC` [DMS, dimethylsulfate]?
A: intracellular NAD(P)H significantly reduced by treatment with DMS (EM9-V cells [4]; DMS 4 hours (XTT) or 2.5 hours (MTS), dose-dependent (FIG. 7A, B)): significantly reduced; intracellular NAD(P)H significantly reduced by treatment with DMS (EM9-XH5 cells): not

Q: Which “intracellular NAD(P)H on treatment with MMS” value ([1]; EM9-V cells, MMS at different concentrations for 4 hours, dose-dependent (FIG. 2A)) does the source give for `COS(C)(=O)=O` [MMS, methyl methanesulfonate] here?
A: significantly reduced

Q: What about the “lowest MMS concentration at which decrease in intracellular NAD(P)H was detected” value ([1]; EM9-V cells, at 1, 2 and 4 hours (FIG. 5A-C)) of the same molecule?
A: ~10 µM

Q: What about the “earliest time at which reduction of NAD(P)H was detected during MMS exposure” value ([1]; EM9-V cells, real-time assay, read about every 30 minutes (FIG. 2B)) of the same molecule?
A: 30 min

Q: What about the “time for ratio of NAD(P)H in EM9-V versus EM9-XH5 cells to reach a plateau” value ([1]; as a function of exposure time with MMS (FIG. 2C)) of the same molecule?
A: ≤ 1 h

Q: And the “intracellular NAD(P)H on treatment with MMS” value ([2]; MMS at different concentrations for 4 hours, dose-dependent (FIG. 2A))?
A: significantly reduced

Q: What about the “cell death (trypan blue exclusion) during MMS treatment” value [5] of the same molecule?
A: no major cell death

Q: What about the “NAD(P)H on exposure to MMS” value [3] of the same molecule?
A: reduced NAD(P)H

Q: What about the “NAD(P)H on exposure to MMS” value [6] of the same molecule?
A: more resistant to the decrease in NAD(P)H

Q: And the “MMS concentration at which increase in tail moment was detected (Comet assay)” value (EM9-V cells [7])?
A: ~50 µM

Q: What about the “sensitivity to MMS (NAD(P)H depletion) among lymphoblastoid cell lines” value [8] of the same molecule?
A: wide variation in the sensitivity
